Assay results taken from patent US11208386B2, “Inhibitors of protein arginine deiminases (PADs) and methods of preparation and use thereof” (University of Massachusetts, priority 2016, dated 2021).

Legend:
Format in all cases: biochemical
[1] = molecular target: T1, PAD1 (Homo sapiens, UniProt Q9ULC6); assay: Inactivation kinetics, PAD1; conditions: for kinact/KI: a: single kobs determined, b: from a linear fit; for Fold PAD1 Selectivity: kinact/KI relative to least inhibited isozyme (1.0)
T1 construct: made in house
T1 sequence (Q9ULC6 1-663): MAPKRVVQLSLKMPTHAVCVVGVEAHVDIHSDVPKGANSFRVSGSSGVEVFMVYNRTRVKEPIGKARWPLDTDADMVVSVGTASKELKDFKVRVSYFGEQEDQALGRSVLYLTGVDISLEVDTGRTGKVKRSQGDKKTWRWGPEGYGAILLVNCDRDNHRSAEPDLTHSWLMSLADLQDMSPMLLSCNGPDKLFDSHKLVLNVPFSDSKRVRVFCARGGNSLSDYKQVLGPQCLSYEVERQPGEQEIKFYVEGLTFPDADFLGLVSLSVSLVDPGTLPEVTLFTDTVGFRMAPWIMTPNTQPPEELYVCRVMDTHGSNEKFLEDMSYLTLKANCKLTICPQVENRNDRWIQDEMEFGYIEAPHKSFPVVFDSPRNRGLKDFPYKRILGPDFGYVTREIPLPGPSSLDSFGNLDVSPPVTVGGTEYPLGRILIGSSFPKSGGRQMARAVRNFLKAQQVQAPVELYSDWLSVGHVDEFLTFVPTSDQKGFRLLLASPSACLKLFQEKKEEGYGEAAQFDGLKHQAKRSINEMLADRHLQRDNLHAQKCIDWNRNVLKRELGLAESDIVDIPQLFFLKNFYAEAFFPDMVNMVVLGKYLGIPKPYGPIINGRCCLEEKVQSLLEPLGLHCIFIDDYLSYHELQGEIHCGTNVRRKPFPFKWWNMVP
Method: (§1) Inactivation kinetic parameters were determined by incubating PAD1, 2, or 4 (2.0 μM) or PAD3 (5.0 μM) in a pre-warmed (10 min; 37° C.) inactivation mixture (50 mM HEPES, 10 mM CaCl2, and 2 mM DTT, pH 7.6, with a final volume of 60 μL) containing various concentrations of inhibitor. Aliquots were removed at various time points and added to a pre-warmed (10 min, 37° C.) reaction mixture (50 mM HEPES, 50 mM NaCl, 10 mM CaC2, 2 mM DTT, and 10 mM BAEE or 10 mM BAA in the case of PAD3; pH 7.6). After 15 min, reactions were quenched in liquid nitrogen and citrulline production quantified using the COLDER assay. […] In Vitro Labeling of PADs with “Clickable” Probes BB-F-Yne (5u), BB-Cl-Yne (5v) and BIFYne (5w)

[2] = molecular target: T2, PAD2 (Homo sapiens, UniProt Q9Y2J8); assay: Inactivation kinetics, PAD2; conditions: for kinact/KI: a: single kobs determined, b: from a linear fit, other footnotes: from kinact and KI; for Fold PAD2 Selectivity: kinact/KI relative to least inhibited isozyme (1.0); for Ki / kinact: PAD2, table footnote
T2 construct: made in house
Method: as §1

[3] = molecular target: T3, PAD3 (Homo sapiens, UniProt Q9ULW8); assay: Inactivation kinetics, PAD3; conditions: for kinact/KI: a: single kobs determined; for Fold PAD3 Selectivity: kinact/KI relative to least inhibited isozyme (1.0)
T3 construct: made in house
T3 sequence (Q9ULW8 1-664): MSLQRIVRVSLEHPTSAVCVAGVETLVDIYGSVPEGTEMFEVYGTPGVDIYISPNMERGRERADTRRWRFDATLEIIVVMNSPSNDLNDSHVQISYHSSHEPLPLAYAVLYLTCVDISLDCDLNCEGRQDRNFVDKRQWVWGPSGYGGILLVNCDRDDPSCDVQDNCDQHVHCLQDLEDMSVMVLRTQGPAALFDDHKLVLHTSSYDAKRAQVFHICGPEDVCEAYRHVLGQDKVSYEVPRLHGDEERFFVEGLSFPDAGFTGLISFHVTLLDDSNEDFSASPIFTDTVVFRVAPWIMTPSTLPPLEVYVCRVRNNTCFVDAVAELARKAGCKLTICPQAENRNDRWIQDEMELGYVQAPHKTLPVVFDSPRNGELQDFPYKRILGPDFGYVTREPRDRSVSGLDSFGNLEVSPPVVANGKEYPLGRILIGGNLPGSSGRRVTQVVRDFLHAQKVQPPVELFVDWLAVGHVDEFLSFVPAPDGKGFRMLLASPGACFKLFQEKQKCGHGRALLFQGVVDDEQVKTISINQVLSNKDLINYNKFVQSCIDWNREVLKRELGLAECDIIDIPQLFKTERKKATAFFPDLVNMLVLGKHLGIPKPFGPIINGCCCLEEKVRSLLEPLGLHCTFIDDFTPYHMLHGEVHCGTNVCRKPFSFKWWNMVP
Method: as §1

[4] = molecular target: T4, PAD4 (Homo sapiens, UniProt Q9UM07); assay: Inactivation kinetics, PAD4; conditions: for kinact/KI: a: single kobs determined, b: from a linear fit; for Fold PAD4 Selectivity: kinact/KI relative to least inhibited isozyme (1.0)
T4 construct: made in house
Method: as §1

T4 sequence (Q9UM07 whole entry): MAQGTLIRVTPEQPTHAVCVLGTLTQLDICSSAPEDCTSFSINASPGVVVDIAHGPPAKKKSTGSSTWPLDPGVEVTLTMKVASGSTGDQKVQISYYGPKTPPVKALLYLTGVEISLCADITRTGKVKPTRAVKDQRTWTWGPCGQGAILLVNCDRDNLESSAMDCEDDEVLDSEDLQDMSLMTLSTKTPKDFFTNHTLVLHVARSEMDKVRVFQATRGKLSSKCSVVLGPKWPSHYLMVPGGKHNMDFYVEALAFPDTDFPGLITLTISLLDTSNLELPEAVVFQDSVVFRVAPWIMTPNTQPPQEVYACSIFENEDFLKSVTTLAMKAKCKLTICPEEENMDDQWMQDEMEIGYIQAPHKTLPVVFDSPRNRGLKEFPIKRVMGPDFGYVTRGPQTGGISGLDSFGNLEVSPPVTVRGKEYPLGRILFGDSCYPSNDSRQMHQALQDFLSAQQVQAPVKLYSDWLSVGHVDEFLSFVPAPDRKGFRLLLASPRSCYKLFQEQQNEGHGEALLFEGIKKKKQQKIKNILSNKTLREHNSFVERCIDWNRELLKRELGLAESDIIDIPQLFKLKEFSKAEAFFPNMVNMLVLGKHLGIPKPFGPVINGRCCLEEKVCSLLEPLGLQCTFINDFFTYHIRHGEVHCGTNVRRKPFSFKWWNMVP
T2 sequence (Q9Y2J8 whole entry): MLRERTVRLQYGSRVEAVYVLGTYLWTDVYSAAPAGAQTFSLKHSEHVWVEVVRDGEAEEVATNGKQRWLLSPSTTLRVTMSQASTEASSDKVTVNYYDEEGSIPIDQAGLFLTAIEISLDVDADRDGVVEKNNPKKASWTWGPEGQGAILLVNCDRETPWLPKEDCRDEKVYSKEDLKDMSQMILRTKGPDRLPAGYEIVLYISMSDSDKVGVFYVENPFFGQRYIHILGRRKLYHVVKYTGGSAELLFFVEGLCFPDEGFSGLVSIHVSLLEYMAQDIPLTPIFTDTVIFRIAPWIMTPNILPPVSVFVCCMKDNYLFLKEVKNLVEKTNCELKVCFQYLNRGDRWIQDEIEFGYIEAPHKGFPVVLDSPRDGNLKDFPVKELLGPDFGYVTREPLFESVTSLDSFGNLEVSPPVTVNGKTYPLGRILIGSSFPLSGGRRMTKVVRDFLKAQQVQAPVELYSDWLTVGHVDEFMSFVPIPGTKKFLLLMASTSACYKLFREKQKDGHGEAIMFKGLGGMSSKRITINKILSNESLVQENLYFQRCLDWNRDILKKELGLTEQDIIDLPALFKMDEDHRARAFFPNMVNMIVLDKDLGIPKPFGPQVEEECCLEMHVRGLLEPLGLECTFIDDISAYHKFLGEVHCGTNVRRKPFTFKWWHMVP

kinact/KI [1] [M⁻¹ s⁻¹] | Fold PAD1 Selectivity [1] [fold] | kinact/KI [2] [M⁻¹ s⁻¹] | Fold PAD2 Selectivity [2] [fold] | kinact/KI [3] [M⁻¹ s⁻¹] | Fold PAD3 Selectivity [3] [fold] | kinact/KI [4] [M⁻¹ s⁻¹] | Fold PAD4 Selectivity [4] [fold] | Ki [2] [µM] | kinact [2] [s⁻¹] | SMILES
475 | 8.3 | 57.5 | 1.0 | 354 | 6.2 | 517 | 9.0 |  |  | N=C(CCl)NCCC[C@H](NC(=O)c1ccccc1C(=O)O)c1nc2ccccc2[nH]1 [Compound 6b, N1-(2-Carboxyl)benzol-N5-(2-chloro-1-iminoethyl)-1-(1H-benzo[d]imidazol-2-yl)-L-omithine]
538 | 40 | 197 | 15 | 17.2 | 1.3 | 13.3 | 1.0 |  |  | Cn1c([C@H](CCCNC(=N)CF)NC(=O)c2ccccc2C(=O)O)nc2ccccc21 [Compound 6c, N1-(2-Carboxyl)benzoyl-N5-(2-fluoro-1-iminoethyl)-1-(1-methyl-benzo[d]imidazol-2-yl)-L-ornithine]
537 | 4.3 | 240 | 1.9 | 125 | 1.0 | 130 | 1.0 |  |  | Cn1c([C@H](CCCNC(=N)CCl)NC(=O)c2ccccc2C(=O)O)nc2ccccc21 [Compound 6d, N1-(2-Carboxyl)benzoyl-N5-(2-chloro-1-iminoethyl)-1-(1-methyl-benzo[d]imidazol-2-yl)-L-ornithine]
650 | 39 | 527 | 31 | 29.2 | 1.7 | 16.8 | 1.0 |  |  | CCn1c([C@H](CCCNC(=N)CF)NC(=O)c2ccccc2C(=O)O)nc2ccccc21 [Compound 6e, N1-(2-Carboxyl)benzoyl-N5-(2-fluoro-1-iminoethyl)-1-(1-ethyl-benzo[d]imidazol-2-yl)-L-ornithine]
785 | 4.3 | 290 | 1.6 | 183 | 1.0 | 228 | 1.2 |  |  | CCn1c([C@H](CCCNC(=N)CCl)NC(=O)c2ccccc2C(=O)O)nc2ccccc21 [Compound 6f, N1-(2-Carboxyl)benzoyl-N5-(2-chloro-1-iminoethyl)-1-(1-ethyl-benzo[d]imidazol-2-yl)-L-ornithine]
378 | 49 | 412 | 54 | 33.5 | 4.4 | 7.67 | 1.0 |  |  | CC(C)n1c([C@H](CCCNC(=N)CF)NC(=O)c2ccccc2C(=O)O)nc2ccccc21 [Compound 6g, N1-(2-Carboxyl)benzoyl-N5-(2-fluoro-1-iminoethyl)-1-(1-isopropyl-benzo[d]imidazol-2-yl)-L-ornithine]
817 | 68 | 452 | 38 | 45 | 3.8 | 12 | 1.0 |  |  | CC(C)n1c([C@H](CCCNC(=N)CCl)NC(=O)c2ccccc2C(=O)O)nc2ccccc21 [Compound 6h, N1-(2-Carboxyl)benzoyl-N5-(2-chloro-1-iminoethyl)-1-(1-isopropyl-benzo[d]imidazol-2-yl)-L-ornithine]
627 | 6.2 | 340 | 3.4 | 113 | 1.1 | 101 | 1.0 |  |  | COc1cccc2c1nc([C@H](CCCNC(=N)CF)NC(=O)c1ccccc1C(=O)O)n2C [Compound 6i, N1-(2-Carboxyl)benzoyl-N5-(2-fluoro-1-iminoethyl)-1-(4-methoxy-1-methyl-benzo[d]imidazol-2-yl)-L-ornithine]
1120 | 7.0 | 308 | 1.9 | 160 | 1.0 | 235 | 1.5 |  |  | COc1cccc2c1nc([C@H](CCCNC(=N)CCl)NC(=O)c1ccccc1C(=O)O)n2C [Compound 6j]
1290 | 24 | 177 | 3.3 | 53.3 | 1.0 | 552 | 10 | 210 | 0.0373 | N=C(CF)NCCC[C@H](NC(=O)c1cccc2c1C(=O)NC2)c1nc2ccccc2[nH]1 [Compound 7a, N1-(3-oxoisoindoline)benzol-N5-(2-fluoro-1-iminoethyl)-1-(1H-benzo[d]imidazol-2-yl)-L-ornithine]
3010 | 6.5 | 1090 | 2.3 | 467 | 1.0 | 968 | 2.1 |  |  | N=C(CCl)NCCC[C@H](NC(=O)c1cccc2c1C(=O)NC2)c1nc2ccccc2[nH]1 [Compound 7b, N1-(3-oxoisoindoline)benzol-N5-(2-chloro-1-iminoethyl)-1-(1H-benzo[d]imidazol-2-yl)-L-ornithine]
1140 | 25 | 413 | 8.9 | 46.7 | 1.0 | 48.5 | 1.0 |  |  | Cn1c([C@H](CCCNC(=N)CF)NC(=O)c2cccc3c2C(=O)NC3)nc2ccccc21 [Compound 7c]
2430 | 61 | 1220 | 3.1 | 808 | 2.0 | 398 | 1.0 |  |  | Cn1c([C@H](CCCNC(=N)CCl)NC(=O)c2cccc3c2C(=O)NC3)nc2ccccc21 [Compound 7d, N1-(3-oxoisoindoline)benzol-N5-(2-chloro-1-iminoethyl)-1-(1-methyl-benzo[d]imidazol-2-yl)-L-ornithine]
675 | 37 | 1030 | 56 | 18.3 | 1.0 | 31.7 | 1.7 | 32.9 | 0.0337 | CCn1c([C@H](CCCNC(=N)CF)NC(=O)c2cccc3c2C(=O)NC3)nc2ccccc21 [Compound 7e, N1-(3-oxoisoindoline)benzoyl-N5-(2-fluoro-1-iminoethyl)-1-(1-ethyl-benzo[d]imidazol-2-yl)-L-ornithine]
